Some results are limits rather than exact numbers.

The values that follow come from ChEMBL document CHEMBL2311529, “Structure-activity relationships in 1,4-benzodioxan-related compounds. 11. (1) reversed enantioselectivity of 1,4-dioxane derivatives in α1-adrenergic and 5-HT1A receptor binding sites recognition” (J Med Chem, 2013).

The target of test [1] is T1, 5-hydroxytryptamine receptor 1A (Homo sapiens, UniProt P08908).
T1 sequence (P08908 whole entry): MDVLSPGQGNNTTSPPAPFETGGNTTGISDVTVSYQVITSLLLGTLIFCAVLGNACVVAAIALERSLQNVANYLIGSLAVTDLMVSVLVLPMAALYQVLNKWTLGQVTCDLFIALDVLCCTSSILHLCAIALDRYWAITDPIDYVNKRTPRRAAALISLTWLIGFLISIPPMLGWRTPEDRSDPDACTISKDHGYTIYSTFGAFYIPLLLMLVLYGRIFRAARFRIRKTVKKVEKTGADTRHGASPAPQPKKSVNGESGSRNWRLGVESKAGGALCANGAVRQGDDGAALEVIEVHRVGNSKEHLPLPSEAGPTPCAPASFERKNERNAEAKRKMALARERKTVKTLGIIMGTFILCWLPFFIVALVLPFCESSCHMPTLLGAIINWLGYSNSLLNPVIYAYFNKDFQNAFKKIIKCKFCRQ
As to the kind of experiment: Displacement of [3H]8-OH-DPAT from human recombinant 5HT1A receptor expressed in HeLa cell membranes after 30 mins. A general note: In a radioligand displacement assay an active substance lowers the binding of a labelled ligand.

For test [2], the target named is T2, Alpha-1A adrenergic receptor (Homo sapiens, UniProt P35348).
T2 sequence (P35348 whole entry): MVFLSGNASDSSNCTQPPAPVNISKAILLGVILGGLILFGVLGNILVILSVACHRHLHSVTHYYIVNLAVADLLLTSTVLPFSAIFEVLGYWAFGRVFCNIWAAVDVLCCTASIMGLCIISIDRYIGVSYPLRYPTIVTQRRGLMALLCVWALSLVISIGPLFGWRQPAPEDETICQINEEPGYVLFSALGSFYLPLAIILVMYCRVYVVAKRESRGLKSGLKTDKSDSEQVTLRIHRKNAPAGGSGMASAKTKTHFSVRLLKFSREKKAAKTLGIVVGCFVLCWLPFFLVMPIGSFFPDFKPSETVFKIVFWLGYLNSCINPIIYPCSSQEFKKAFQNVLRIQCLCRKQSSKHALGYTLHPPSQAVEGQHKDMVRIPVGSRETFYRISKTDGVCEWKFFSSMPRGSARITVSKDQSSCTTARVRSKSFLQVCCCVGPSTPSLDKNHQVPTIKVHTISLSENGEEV
As to the kind of experiment: biochemical.
Description: Displacement of [3H]prazosin from human recombinant alpha1A adrenergic receptor expressed in CHO cell membranes after 30 mins

Test [3] deals with PC-3. As to the kind of experiment: Cytotoxicity against human PC3 cells assessed as concentration required for tumor growth inhibition after 48 hrs by sulforhodamine B assay. To be noted: PC-3, 48 h. It counts as functional. A general note: Sulforhodamine B stains cellular protein and so reports cell mass.
Test [4] has as its target T3, Alpha-1B adrenergic receptor (Homo sapiens, UniProt P35368).
T3 sequence (P35368 whole entry): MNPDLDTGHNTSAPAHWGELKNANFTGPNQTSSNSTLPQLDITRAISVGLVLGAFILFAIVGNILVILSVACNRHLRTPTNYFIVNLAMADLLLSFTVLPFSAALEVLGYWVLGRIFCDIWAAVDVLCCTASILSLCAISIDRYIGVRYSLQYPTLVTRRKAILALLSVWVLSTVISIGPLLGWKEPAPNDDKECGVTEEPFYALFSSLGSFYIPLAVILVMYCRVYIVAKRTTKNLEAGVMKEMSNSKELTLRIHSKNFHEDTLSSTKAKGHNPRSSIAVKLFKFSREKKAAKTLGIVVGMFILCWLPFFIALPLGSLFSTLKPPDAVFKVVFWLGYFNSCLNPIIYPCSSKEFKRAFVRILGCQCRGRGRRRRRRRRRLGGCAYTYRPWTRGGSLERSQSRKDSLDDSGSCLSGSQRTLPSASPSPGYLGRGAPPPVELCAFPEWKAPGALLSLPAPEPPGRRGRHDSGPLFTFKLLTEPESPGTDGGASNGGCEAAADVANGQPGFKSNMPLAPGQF
As to the kind of experiment: Displacement of [3H]prazosin from human recombinant alpha1B adrenergic receptor expressed in CHO cell membranes after 30 mins.

In test [5] the test system is PC-3. Kind of test: Cytotoxicity against human PC3 cells after 48 hrs by sulforhodamine B assay. It counts as functional. The note with it: PC-3, 48 h.
Test [6] addresses T4, 5-hydroxytryptamine receptor 1A (Homo sapiens) (UniProt P08908).
T4 sequence (whole entry): T1 sequence (P08908 whole entry)
The note with it: HeLa.
Description: Agonist activity at human 5HT1A receptor expressed in HeLa cell membranes by [35S]GTPgammaS binding assay

The target in test [7] is T5, Alpha-1D adrenergic receptor (Homo sapiens, UniProt P25100).
T5 sequence (P25100 whole entry): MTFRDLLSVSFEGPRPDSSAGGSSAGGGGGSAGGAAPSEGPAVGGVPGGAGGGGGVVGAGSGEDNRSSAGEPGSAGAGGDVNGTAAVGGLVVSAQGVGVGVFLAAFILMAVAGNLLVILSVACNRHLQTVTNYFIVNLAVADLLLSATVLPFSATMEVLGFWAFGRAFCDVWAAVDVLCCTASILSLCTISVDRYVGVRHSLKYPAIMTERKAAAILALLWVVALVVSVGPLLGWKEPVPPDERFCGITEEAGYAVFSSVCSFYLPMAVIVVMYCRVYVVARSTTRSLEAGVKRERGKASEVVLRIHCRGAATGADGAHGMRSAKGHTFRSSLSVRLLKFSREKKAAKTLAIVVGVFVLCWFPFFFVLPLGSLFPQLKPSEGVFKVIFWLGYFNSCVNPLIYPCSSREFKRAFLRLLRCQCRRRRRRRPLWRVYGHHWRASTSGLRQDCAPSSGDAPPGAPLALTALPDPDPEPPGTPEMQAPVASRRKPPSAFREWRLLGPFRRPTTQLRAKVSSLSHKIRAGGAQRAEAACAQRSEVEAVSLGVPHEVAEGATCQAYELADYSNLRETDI
Kind of test: Displacement of [3H]prazosin from human recombinant alpha1D adrenergic receptor expressed in CHO cell membranes after 30 mins.

Test [8] deals with T4, 5-hydroxytryptamine receptor 1A (Homo sapiens). To be noted: HeLa. The source holds these as a separate data set.
Description: Partial agonist activity at human 5HT1A receptor expressed in HeLa cell membranes after 20 mins by [35S]GTPgammaS binding assay
For test [9], the system named is PC-3. Kind of test: Cytotoxicity against human PC3 cells transfected with sialpha1D-AR after 48 hrs by sulforhodamine B assay. It counts as functional. The note with it: PC-3, 48 h; for CC50: read-out: LC50 (the source's name).
The test system of test [10] is PC-3. As to the kind of experiment: Ratio of LC50 for human PC3 cells transfected with sialpha1D-AR to LC50 for human PC3 cells. It counts as functional.
The test system of test [11] is PC-3. Kind of test: Ratio of concentration required for tumor growth inhibition of human PC3 cells transfected with sialpha1D-AR to concentration required for tumor growth inhibition of human PC3 cells. Format: functional.
The subject of test [12] is PC-3. As to the kind of experiment: Cytotoxicity against human PC3 cells transfected with siGLO after 48 hrs by sulforhodamine B assay. Format: functional. To be noted: PC-3, 48 h; for CC50: read-out: LC50 (the source's name).
The subject of test [13] is PC-3. Kind of test: Cytotoxicity against human PC3 cells transfected with sialpha1D-AR assessed as concentration required for tumor growth inhibition after 48 hrs by sulforhodamine B assay. It counts as functional. The note with it: PC-3, 48 h.
For test [14], the system named is PC-3. As to the kind of experiment: Cytotoxicity against human PC3 cells transfected with siGLO assessed as concentration required for tumor growth inhibition after 48 hrs by sulforhodamine B assay. It counts as functional. To be noted: PC-3, 48 h.
The subject of test [15] is PC-3. Kind of test: Ratio of GI50 for human PC3 cells transfected with sialpha1D-AR to GI50 for human PC3 cells. It counts as functional.

Broadly, the Ki is a measure of affinity in units of concentration, obtained from inhibition or displacement. `COc1cccc(OC)c1OCCNC[C@H]1COc2ccccc2O1`: the Ki in test [1] is 2.45 nM.

For orientation: TGI means the concentration at which net growth stops. By GI50 is commonly meant the concentration giving 50% growth inhibition. Read a low GI50 as greater sensitivity of the cells. On to `COc1ccccc1OCCNCC1COCC(c2ccccc2)(c2ccccc2)O1` (racemic), for which the inhibitory constant (Ki) in test [2] was 27.5 nM; in test [1], 0.661 nM; in [4], 56.2 nM; in [7] it was 1.15 nM. The TGI in test [3] amounted to 16 µM. In test [5], this compound returned a GI50 of 9 µM. Besides, in [6], the pD2 was determined as 9.4.

The compound `COc1cccc(OC)c1OCCNCC1COc2ccccc2O1` (stereo unspecified) registered a GI50 in [5] of 64.6 µM.

`COc1ccccc1OCCNC[C@H]1COCC(c2ccccc2)(c2ccccc2)O1`: the pD2 in test [8] came out at 9.19. Further, the Ki in [2] is 257 nM; in test [1], 0.309 nM; in test [4] it was 417 nM; in [7] it was 25.1 nM. Also, the TGI in test [3] turned out to be 34 µM. The same compound returned a GI50 in [5] of 21 µM.

Turning to `COc1cc2nc(N3CCN(C(=O)C4COc5ccccc5O4)CC3)nc(N)c2cc1OC` (stereo unspecified) [DOXAZOSIN], it took 26.9 µM to inhibit growth in [5] by half (GI50).

As for `COc1ccccc1N1CCN(CCN2C(=O)CC3(CCCC3)CC2=O)CC1`, the pD2 in [6] came out at 9.27.

With `NCCc1c[nH]c2ccc(O)cc12`, in test [6], the pD2 came to 7.3.

The LC50 is the concentration lethal to half of the exposed cells or organisms. The compound `c1ccc(OCCNC[C@@H]2COCC(c3ccccc3)(c3ccccc3)O2)cc1` displayed a pD2 in [8] of 7.82. Moreover, the Ki in test [2] was 129 nM; in [1], 1.48 nM; in [4], 52.5 nM; in [7] it was 3.24 nM. In addition, the TGI was determined as 2.1 µM in test [3], 27.1 µM in [13] and 2.5 µM in [14]. For the same compound, the figures for the GI50 in test [9], in [12] and in [5] were 10.2 µM, 0.9 µM and 0.6 µM, respectively. Also, the CC50 came out at 52.1 µM in test [9] and 5.8 µM in test [12]. Besides, the RatioLC50 in test [10] was 13. For the same compound, the Ratio in [11] was 12.9. Also, the LC50 in [5] is 4 µM. The RatioGI50 in [15] was found to be 17.

As for `COc1cccc(OC)c1OCCNCC1COCC(c2ccccc2)(c2ccccc2)O1` (racemic), the Ki in [2] was 339 nM; in [1], 1.41 nM; in test [4], 324 nM; in [7], 66.1 nM. In addition, the TGI in [3] amounted to 32 µM. Besides, growth in test [5] was halved (GI50) at 14 µM. In test [5], this compound gave an LC50 of 45 µM. In addition, the pD2 in [6] turned out to be 8.28.

In test [8], `COc1ccccc1OCCNC[C@@H]1COCC(c2ccccc2)(c2ccccc2)O1` displayed a pD2 of 7.7. For the same compound, the Ki in test [2] is 16.6 nM; in test [1], 0.603 nM; in test [4], 21.9 nM; in test [7], 1.38 nM. The TGI in test [3] came to 9 µM. The same compound had a GI50 in test [5] of 4 µM.

In the case of `COc1cccc(OC)c1OCCNC[C@@H]1COc2ccccc2O1`, the Ki in test [1] is 40.7 nM.

With `COc1cccc(OC)c1OCCNC[C@H]1COCC(c2ccccc2)(c2ccccc2)O1`, the Ki in test [2] is more than 1000 nM; in test [1], 0.55 nM; in test [4], 1660 nM; in [7], 724 nM. In test [3], the TGI came out at 30 µM. In test [5], this compound displayed a GI50 of 16 µM. The compound also came in with an LC50 in test [5] of 37 µM. Moreover, the pD2 in [6] worked out at 8.3.

Take `c1ccc(OCCNCC2COCC(c3ccccc3)(c3ccccc3)O2)cc1` (racemic): the Ki in test [2] was 170 nM; in test [1] it was 0.589 nM; in [4], 120 nM; in test [7] it was 3.63 nM. The TGI in test [3] amounted to 6 µM; in [13], 25 µM; in test [14], 7.1 µM. In addition, the results for the GI50 in test [9], in test [12] and in test [5] were 23.6 µM, 4.1 µM and 3 µM, respectively. For the same compound, the CC50 in test [9] was found to be 39.8 µM; in [12], 10.7 µM. In test [5], the LC50 was 8 µM. In test [6], the pD2 worked out at 9.11.

As for `COc1cccc(OC)c1OCCNC[C@@H]1COCC(c2ccccc2)(c2ccccc2)O1`, the Ki in test [2] is 166 nM; in test [1], 44.7 nM; in test [4] it was 195 nM; in [7], 56.2 nM. The TGI in test [3] is 58 µM. Moreover, halving of growth in test [5] (GI50) required 32 µM. Also, the LC50 in [5] worked out at 65 µM. The pD2 in test [6] was 5.88.

In turn, `c1ccc(OCCNC[C@H]2COCC(c3ccccc3)(c3ccccc3)O2)cc1` gave a pD2 in test [8] of 9.19. The Ki is 437 nM in test [2], 0.398 nM in test [1], 170 nM in test [4] and 83.2 nM in test [7]. The values for the TGI in [3], in test [13] and in test [14] were 43 µM, 49.2 µM and 41.7 µM, respectively. For the same compound, the GI50 was found to be 20.7 µM in test [9], 22.8 µM in test [12] and 19.1 µM in test [5]. Moreover, the CC50 in [9] and in [12] was more than 300 µM each time. In addition, the LC50 in [5] is more than 300 µM.
